The values that follow come from US11787785B2 (NOVARTIS AG, priority 2021, dated 2023).

The test concerns the target T1, WIZ protein (HiBit-WIZ fusion protein) (Homo sapiens, UniProt O95785+Q96SW2).
T1 construct: expressed in transfected cells
Put plainly: Quantification of WIZ protein levels in HiBit tag fusion protein assay (WIZ HiBit assay in 293T cells). The note with it: for Dmax at 25 µM / remaining activity at 25 µM: HEK-293T, 293T cells; for Dmax at 25 µM: 100 − Amax, read-out: % degradation of WIZ (100 − Amax); for remaining activity at 25 µM: DMSO-normalized, curve-fitted percentage of WIZ-HiBit remaining at 25 uM, read-out: WIZ Amax; for DC50: WIZ HiBit assay in 293T cells, 10-point, 5-fold dose response, highest concentration 25 μM, about 18 hours, read-out: WIZ AC50. The class given is cell-based. The protocol: The HiBit system from Promega was used to develop high-throughput and quantitative assays to measure changes in WIZ protein levels in response to compounds. The HiBit tag was derived from a split Nanoluciferase and has the following protein sequence: […] (SEQ ID NO: 1). The complementary fragment of Nanoluciferase (known as LgBit, from Promega), was added to the HiBit tag to form an active Nanoluciferase enzyme whose activity can be precisely measured. In this way, the levels of a fusion protein with the HiBit tag can be quantified in cell lysates.
Lentiviral vectors, based on the Invitrogen™ pLenti6.2/V5 DEST backbone were constructed that places the HiBit tag upstream of WIZ and expressed the fusion protein from an HSVTK promotor.
To ensure moderate and consistent expression of the HiBit-WIZ fusion protein across all cells in the population, stable cell lines were constructed from cells harboring a single copy of the construct. Lentivirus packaged with the constructs were made using the ViraPower™ kit from Invitrogen™. 293T cells from ATCC (Catalog number: CRL-3216), were infected with the virus at low multiplicity of infection and selected by 5 μg/mL blasticidin in culture media for 2 weeks.
The levels of HiBit-WIZ tagged fusion proteins in compound-treated cell lines were measured as follows:
On day 1, cells were diluted to 1.0×10^6 cells/ml in normal growth medium. 20 μL of cell suspension were plated in each well of a solid white 384-well plate. Plates were incubated overnight in a 37° C. and 5% CO2 humidified tissue culture incubator.
On day 2, serial dilutions of compounds were made in 384-well plates. Compound plates were set up with DMSO in columns 1, 2, 23, 24, and 10-point compound dilution series in column 3-12 and column 13-22. 10 mM stock solution of compound were placed into column 3 or 13 and a 1:5 serial dilution was carried out until there was a 10-point dilution series per compound. 50 nL of diluted compounds were transferred into the plated cells by Echo® (Labcyte) acoustic transfer. The highest concentration of compound was 25 μM. Plates were incubated overnight (about 18 hours) in a 37° C. and 5% CO2 humidified tissue culture incubator.
On day 3, plates were removed from the incubator and allowed to equilibrate at room temperature for 60 minutes. HiBit substrate (Nano-Glo® HiBit Lytic Detection System, Promega Catalogue number: N3050) was added as described by the manufacturers protocols. Plates were incubated at room temperature for 30 minutes and luminescence was read using an EnVision® reader (PerkinElmer®). Data was analyzed and visualized using the Spotfire® software package.
WIZ Degradation Activity of Compounds (Table 1)
WIZ Amax reflects the DMSO-normalized, curve-fitted percentage of WIZ-HiBit remaining at 25 uM. It was calculated by normalizing […] controls to 100%, parametric curve fitting of the dose response data (10-point, 5-fold), followed by calculation of response at 25 uM using the fitted equation (nd=not determined).

T1 sequence (O95785 whole entry, the tested form may be a part): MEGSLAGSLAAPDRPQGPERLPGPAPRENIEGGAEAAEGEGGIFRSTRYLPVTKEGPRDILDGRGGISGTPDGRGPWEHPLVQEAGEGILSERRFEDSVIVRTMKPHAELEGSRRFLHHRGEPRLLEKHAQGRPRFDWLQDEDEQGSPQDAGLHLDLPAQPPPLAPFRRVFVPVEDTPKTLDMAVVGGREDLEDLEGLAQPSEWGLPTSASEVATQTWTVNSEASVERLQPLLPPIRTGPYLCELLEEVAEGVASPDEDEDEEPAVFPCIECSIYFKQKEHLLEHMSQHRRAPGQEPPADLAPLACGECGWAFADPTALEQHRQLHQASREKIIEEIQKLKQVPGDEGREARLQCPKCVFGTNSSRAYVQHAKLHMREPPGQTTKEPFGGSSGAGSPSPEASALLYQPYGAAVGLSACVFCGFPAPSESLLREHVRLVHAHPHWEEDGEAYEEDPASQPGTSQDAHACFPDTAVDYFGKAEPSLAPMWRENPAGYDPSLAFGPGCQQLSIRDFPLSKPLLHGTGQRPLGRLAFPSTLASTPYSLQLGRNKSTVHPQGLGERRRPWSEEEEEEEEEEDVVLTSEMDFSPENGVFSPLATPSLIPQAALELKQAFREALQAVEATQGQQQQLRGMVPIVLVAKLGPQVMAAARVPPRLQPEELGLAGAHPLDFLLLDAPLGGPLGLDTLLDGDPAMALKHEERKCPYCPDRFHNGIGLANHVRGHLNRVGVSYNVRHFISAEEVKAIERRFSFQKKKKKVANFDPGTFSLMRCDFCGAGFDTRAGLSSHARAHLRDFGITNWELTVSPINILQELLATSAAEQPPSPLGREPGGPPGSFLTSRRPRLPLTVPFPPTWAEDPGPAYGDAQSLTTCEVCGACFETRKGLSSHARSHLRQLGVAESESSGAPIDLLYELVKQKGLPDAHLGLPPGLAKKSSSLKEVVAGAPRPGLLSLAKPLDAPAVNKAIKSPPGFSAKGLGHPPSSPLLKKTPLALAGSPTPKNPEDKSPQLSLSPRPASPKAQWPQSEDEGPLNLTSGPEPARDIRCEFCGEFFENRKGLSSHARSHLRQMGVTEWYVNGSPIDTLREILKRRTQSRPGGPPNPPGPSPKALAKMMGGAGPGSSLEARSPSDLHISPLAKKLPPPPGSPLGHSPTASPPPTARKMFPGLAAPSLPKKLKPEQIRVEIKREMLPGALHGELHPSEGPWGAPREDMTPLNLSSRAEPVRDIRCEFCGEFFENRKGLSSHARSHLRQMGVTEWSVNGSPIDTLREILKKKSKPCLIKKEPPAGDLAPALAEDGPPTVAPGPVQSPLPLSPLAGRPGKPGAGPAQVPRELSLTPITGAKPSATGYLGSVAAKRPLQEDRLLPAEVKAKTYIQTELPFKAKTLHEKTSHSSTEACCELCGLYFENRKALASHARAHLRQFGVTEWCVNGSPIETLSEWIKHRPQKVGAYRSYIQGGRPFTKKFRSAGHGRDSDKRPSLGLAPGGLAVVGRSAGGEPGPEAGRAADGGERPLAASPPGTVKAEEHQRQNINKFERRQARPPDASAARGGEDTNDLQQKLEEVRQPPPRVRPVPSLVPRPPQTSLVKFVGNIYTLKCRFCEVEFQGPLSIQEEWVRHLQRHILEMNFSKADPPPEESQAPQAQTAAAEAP
T1 sequence (Q96SW2 whole entry, the tested form may be a part): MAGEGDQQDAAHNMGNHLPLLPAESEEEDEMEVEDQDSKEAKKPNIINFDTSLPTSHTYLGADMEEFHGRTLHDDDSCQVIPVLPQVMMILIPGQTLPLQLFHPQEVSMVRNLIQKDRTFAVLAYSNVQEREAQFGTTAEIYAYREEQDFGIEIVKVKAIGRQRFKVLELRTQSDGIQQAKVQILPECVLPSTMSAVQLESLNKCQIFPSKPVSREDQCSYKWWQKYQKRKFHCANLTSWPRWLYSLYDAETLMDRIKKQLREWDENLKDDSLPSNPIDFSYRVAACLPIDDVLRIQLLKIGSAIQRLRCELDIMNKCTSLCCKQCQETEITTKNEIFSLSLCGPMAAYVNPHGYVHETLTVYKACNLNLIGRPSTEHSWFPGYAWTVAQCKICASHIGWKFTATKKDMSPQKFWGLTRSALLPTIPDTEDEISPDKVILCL
T1 sequence (Q16531 whole entry partner, the tested form may be a part): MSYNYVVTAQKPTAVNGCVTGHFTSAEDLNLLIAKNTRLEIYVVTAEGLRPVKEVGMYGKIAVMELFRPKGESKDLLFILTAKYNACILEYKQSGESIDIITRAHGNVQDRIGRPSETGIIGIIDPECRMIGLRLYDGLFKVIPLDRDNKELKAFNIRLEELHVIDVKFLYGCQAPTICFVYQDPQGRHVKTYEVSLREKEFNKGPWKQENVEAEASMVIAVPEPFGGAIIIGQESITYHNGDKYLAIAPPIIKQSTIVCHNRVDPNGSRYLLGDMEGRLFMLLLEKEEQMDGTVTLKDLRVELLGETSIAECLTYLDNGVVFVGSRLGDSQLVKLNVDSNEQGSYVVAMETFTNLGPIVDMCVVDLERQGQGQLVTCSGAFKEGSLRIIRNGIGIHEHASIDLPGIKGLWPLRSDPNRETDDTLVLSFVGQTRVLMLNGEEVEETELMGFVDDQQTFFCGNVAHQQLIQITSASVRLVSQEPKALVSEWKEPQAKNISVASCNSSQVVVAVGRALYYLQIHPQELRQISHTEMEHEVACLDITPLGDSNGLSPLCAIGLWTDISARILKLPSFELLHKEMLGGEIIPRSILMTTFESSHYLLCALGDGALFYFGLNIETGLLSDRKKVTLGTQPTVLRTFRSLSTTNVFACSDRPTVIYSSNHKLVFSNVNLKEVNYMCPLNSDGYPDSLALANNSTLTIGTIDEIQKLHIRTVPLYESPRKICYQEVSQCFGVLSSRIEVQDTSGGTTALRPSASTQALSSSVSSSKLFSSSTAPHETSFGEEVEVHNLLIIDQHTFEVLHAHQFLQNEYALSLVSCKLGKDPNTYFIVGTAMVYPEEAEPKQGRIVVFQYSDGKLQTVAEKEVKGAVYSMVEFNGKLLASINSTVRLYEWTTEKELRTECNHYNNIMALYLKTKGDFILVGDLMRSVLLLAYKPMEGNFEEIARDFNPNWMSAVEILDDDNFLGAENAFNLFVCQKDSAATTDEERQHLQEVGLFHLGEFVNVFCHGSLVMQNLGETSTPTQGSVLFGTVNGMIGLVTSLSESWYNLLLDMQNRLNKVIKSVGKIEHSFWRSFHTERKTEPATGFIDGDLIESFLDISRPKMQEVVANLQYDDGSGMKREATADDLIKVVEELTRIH

For `CC(C)N1CCC(Cc2ccn3ncc(N4CCC(=O)NC4=O)c3c2)CC1` [Example 37, 1-(5-((1-isopropylpiperidin-4-yl)methyl)pyrazolo[1,5-a]pyridin-3-yl)dihydropyrimidine-2,4(1H,3H)-dione], the Dmax at 25 µM was 72%, the remaining activity at 25 µM was determined as 28% and the DC50 is 446 nM.

In the case of `O=C1CCN(c2cnn3ccc(CC4CCN(Cc5ccccc5F)CC4)cc23)C(=O)N1` [Example 38, 1-(5-((1-(2-fluorobenzyl)piperidin-4-yl)methyl)pyrazolo[1,5-a]pyridin-3-yl)dihydropyrimidine-2,4(1H,3H)-dione], the Dmax at 25 µM worked out at 71%, the remaining activity at 25 µM was 29% and the DC50 was determined as 112 nM.

As to `CC(C)(F)CN1CCC(Cc2ccn3ncc(N4CCC(=O)NC4=O)c3c2)CC1` [Example 39, 1-(5-((1-(2-fluoro-2-methylpropyl)piperidin-4-yl)methyl)pyrazolo[1,5-a]pyridin-3-yl)dihydropyrimidine-2,4(1H,3H)-dione], the Dmax at 25 µM amounted to 71%, the remaining activity at 25 µM is 29% and the DC50 was 83 nM.

With `C=C(C)CN1CCC(Cc2ccn3ncc(N4CCC(=O)NC4=O)c3c2)CC1` [Example 39a, 1-(5-((1-(2-methylallyl)piperidin-4-yl)methyl)pyrazolo[1,5-a]pyridin-3-yl)dihydropyrimidine-2,4(1H,3H)-dione], the Dmax at 25 µM was found to be 68%, the remaining activity at 25 µM turned out to be 32% and the DC50 was determined as 87 nM.

With `COc1cccc(CN2CCC(Cc3ccn4ncc(N5CCC(=O)NC5=O)c4c3)CC2)c1` [Example 40, 1-(5-((1-(3-methoxybenzyl)piperidin-4-yl)methyl)pyrazolo[1,5-a]pyridin-3-yl)dihydropyrimidine-2,4(1H,3H)-dione], the Dmax at 25 µM amounted to 70%, the remaining activity at 25 µM was found to be 30% and the DC50 is 52 nM.

As to `Cc1ccccc1CN1CCC(Cc2ccn3ncc(N4CCC(=O)NC4=O)c3c2)CC1` [Example 41, 1-(5-((1-(2-methylbenzyl)piperidin-4-yl)methyl)pyrazolo[1,5-a]pyridin-3-yl)dihydropyrimidine-2,4(1H,3H)-dione], the Dmax at 25 µM was 70%, the remaining activity at 25 µM worked out at 30% and the DC50 worked out at 27 nM.

Regarding `Cc1c(F)cccc1CN1CCC(Cc2ccn3ncc(N4CCC(=O)NC4=O)c3c2)CC1` [Example 42, 1-(5-((1-(3-fluoro-2-methylbenzyl)piperidin-4-yl)methyl)pyrazolo[1,5-a]pyridin-3-yl)dihydropyrimidine-2,4(1H,3H)-dione], the Dmax at 25 µM was determined as 70%, the remaining activity at 25 µM is 30% and the DC50 was 26 nM.

In the case of `O=C1CCN(c2cnn3ccc(CC4CCN(CC(F)F)CC4)cc23)C(=O)N1` [Example 43, 1-(5-((1-(2,2-difluoroethyl)piperidin-4-yl)methyl)pyrazolo[1,5-a]pyridin-3-yl)dihydropyrimidine-2,4(1H,3H)-dione], the Dmax at 25 µM came out at 70%, the remaining activity at 25 µM is 30% and the DC50 is 34 nM.

Regarding `O=C1CCN(c2cnn3ccc(CC4CCN(Cc5cc(F)cc(F)c5)CC4)cc23)C(=O)N1` [Example 44, 1-(5-((1-(3,5-difluorobenzyl)piperidin-4-yl)methyl)pyrazolo[1,5-a]pyridin-3-yl)dihydropyrimidine-2,4(1H,3H)-dione], the Dmax at 25 µM came to 70%, the remaining activity at 25 µM amounted to 30% and the DC50 was found to be 43 nM.

Regarding `O=C1CCN(c2cnn3ccc(CC4CCN(Cc5ccc(F)c(F)c5)CC4)cc23)C(=O)N1` [Example 45, 1-(5-((1-(3,4-difluorobenzyl)piperidin-4-yl)methyl)pyrazolo[1,5-a]pyridin-3-yl)dihydropyrimidine-2,4(1H,3H)-dione], the Dmax at 25 µM worked out at 70%, the remaining activity at 25 µM was determined as 30% and the DC50 was found to be 23 nM.

In the case of `Cc1ccc(CN2CCC(Cc3ccn4ncc(N5CCC(=O)NC5=O)c4c3)CC2)cn1` [Example 46, 1-(5-((1-((6-methylpyridin-3-yl)methyl)piperidin-4-yl)methyl)pyrazolo[1,5-a]pyridin-3-yl)dihydropyrimidine-2,4(1H,3H)-dione], the Dmax at 25 µM worked out at 69%, the remaining activity at 25 µM came to 31% and the DC50 amounted to 58 nM.

As to `Cc1ccc(CN2CCC(Cc3ccn4ncc(N5CCC(=O)NC5=O)c4c3)CC2)cc1` [Example 47, 1-(5-((1-(4-methylbenzyl)piperidin-4-yl)methyl)pyrazolo[1,5-a]pyridin-3-yl)dihydropyrimidine-2,4(1H,3H)-dione], the Dmax at 25 µM was 69%, the remaining activity at 25 µM is 31% and the DC50 was determined as 157 nM.

With `CC(c1cccc(F)c1)N1CCC(Cc2ccn3ncc(N4CCC(=O)NC4=O)c3c2)CC1` (stereo not drawn) [Example 48, 1-(5-((1-(1-(3-fluorophenyl)ethyl)piperidin-4-yl)methyl)pyrazolo[1,5-a]pyridin-3-yl)dihydropyrimidine-2,4(1H,3H)-dione], the Dmax at 25 µM turned out to be 68%, the remaining activity at 25 µM was 32% and the DC50 was 61 nM.

As for `CN1CCC(Cc2ccn3ncc(N4CCC(=O)NC4=O)c3c2)CC1` [Example 49, 1-(5-((1-methylpiperidin-4-yl)methyl)pyrazolo[1,5-a]pyridin-3-yl)dihydropyrimidine-2,4(1H,3H)-dione], the Dmax at 25 µM came to 66%, the remaining activity at 25 µM came out at 34% and the DC50 amounted to 2790 nM.

For `O=C1CCN(c2cnn3ccc(CC4CCN(Cc5ccc(F)cc5F)CC4)cc23)C(=O)N1` [Example 50, 1-(5-((1-(2,4-difluorobenzyl)piperidin-4-yl)methyl)pyrazolo[1,5-a]pyridin-3-yl)dihydropyrimidine-2,4(1H,3H)-dione], the Dmax at 25 µM is 66%, the remaining activity at 25 µM was 34% and the DC50 was determined as 113 nM.

With `O=C1CCN(c2cnn3ccc(CC4CCN(Cc5cc(F)cc(C(F)(F)F)c5)CC4)cc23)C(=O)N1` [Example 51, 1-(5-((1-(3-fluoro-5-(trifluoromethyl)benzyl)piperidin-4-yl)methyl)pyrazolo[1,5-a]pyridin-3-yl)dihydropyrimidine-2,4(1H,3H)-dione], the Dmax at 25 µM was found to be 66%, the remaining activity at 25 µM stood at 34% and the DC50 is 39 nM.

In the case of `O=C1CCN(c2cnn3ccc(CC4CCN(CC(=O)N5CCCCC5)CC4)cc23)C(=O)N1` [Example 52, 1-(5-((1-(2-oxo-2-(piperidin-1-yl)ethyl)piperidin-4-yl)methyl)pyrazolo[1,5-a]pyridin-3-yl)dihydropyrimidine-2,4(1H,3H)-dione], the Dmax at 25 µM was determined as 59%, the remaining activity at 25 µM worked out at 41% and the DC50 was 987 nM.

`O=C1CCN(c2cnn3ccc(CC4CCN(Cc5cccc(F)c5F)CC4)cc23)C(=O)N1` [Example 53, 1-(5-((1-(2,3-difluorobenzyl)piperidin-4-yl)methyl)pyrazolo[1,5-a]pyridin-3-yl)dihydropyrimidine-2,4(1H,3H)-dione]: the Dmax at 25 µM turned out to be 65%, the remaining activity at 25 µM was determined as 35% and the DC50 was determined as 37 nM.
